# According to patent US8106055B2, “Substituted amide compounds” (Gruenenthal GmbH, priority 2007, dated 2012):
# Legend:
# [1] = target: T1, bradykinin 1 receptor (B1R) of the rat (Rattus norvegicus, UniProt P97583); assay: Functional investigation on the rat bradykinin 1 receptor (B1R), Ca2+ FLIPR assay in CHO K1 rB1R cells; type: cell-based; conditions: B1R antagonism rat; test substance 10 μM; Ca2+ FLIPR, CHO K1 rB1R cells
# T1 construct: expressed in transfected cells; host or cells: CHO K1 cells
# T1 sequence (P97583 1-337): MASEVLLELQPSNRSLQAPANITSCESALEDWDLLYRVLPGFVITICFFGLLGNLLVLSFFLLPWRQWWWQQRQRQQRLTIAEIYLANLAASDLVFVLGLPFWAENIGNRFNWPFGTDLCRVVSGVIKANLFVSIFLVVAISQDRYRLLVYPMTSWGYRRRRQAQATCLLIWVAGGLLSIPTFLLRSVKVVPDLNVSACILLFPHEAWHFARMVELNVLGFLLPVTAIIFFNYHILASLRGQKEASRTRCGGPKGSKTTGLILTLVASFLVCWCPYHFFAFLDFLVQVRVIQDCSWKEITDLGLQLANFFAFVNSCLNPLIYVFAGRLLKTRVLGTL
# In short: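 Fluo-4 Ca2+ readout, peak fluorescence. Stable CHO K1 transfectants; compound pre-incubated 10-20 min, then EC80 agonist—Lys-Des-Arg9-BK for hB1R, Des-Arg9-BK for rB1R. % inhibition vs maximal inhibition; IC50 from multiple concentrations, duplicate/triplicate, ≥2 independent runs.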
# human μ opiate receptor = target: T2, human μ opiate receptor (Homo sapiens, UniProt P35372); assay: Affinity for the human μ opiate receptor ([3H]-naloxone displacement, CHO-K1 receptor membrane preparation, SPA); type: binding; conditions: test concentration of 1 μM
# T2 construct: purchased PerkinElmer Life Sciences, Zaventem, Belgium RB-HOM; host or cells: CHO-K1 cells (membrane preparation)
# T2 sequence (P35372 whole entry): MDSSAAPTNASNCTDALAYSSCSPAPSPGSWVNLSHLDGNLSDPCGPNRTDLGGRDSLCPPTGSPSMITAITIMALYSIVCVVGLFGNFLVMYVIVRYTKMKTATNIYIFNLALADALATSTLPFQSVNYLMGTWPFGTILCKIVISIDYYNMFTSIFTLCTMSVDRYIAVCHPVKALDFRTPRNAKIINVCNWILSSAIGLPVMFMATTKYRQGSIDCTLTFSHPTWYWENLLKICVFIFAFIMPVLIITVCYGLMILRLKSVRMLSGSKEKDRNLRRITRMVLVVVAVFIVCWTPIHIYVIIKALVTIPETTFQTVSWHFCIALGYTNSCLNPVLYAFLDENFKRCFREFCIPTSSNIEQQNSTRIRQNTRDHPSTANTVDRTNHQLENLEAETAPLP
# In short: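 Displacement of 1 nmol/l [3H]-naloxone measured by SPA counting after 90 min at room temperature, using human μ receptor CHO-K1 membrane preparation in Tris-HCl buffer with 0.06% BSA. Test substances at 1 μmol/l give % inhibition; dilution series yield IC50, then Ki (Cheng-Prusoff); non-specific binding with 100 μmol/l naloxone.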
SMILES,B1R Ant. r [10 μM] % Inhibition [1],"μ (binding on the μ opioid receptor, % inhibition) (human μ opiate receptor)"
COc1cc(C)c(S(=O)(=O)N2CCC(OCC(=O)NC3CCC(C(c4ccc(F)cc4)N(C)C)CC3)C2)c(C)c1 (stereo not shown) [Example 441],84%,49%
COc1cc(C)c(S(=O)(=O)N2CCN(CCOCC(=O)NCCC3CCC(C(c4ccc(F)cc4)N(C)C)CC3)CC2)c(C)c1C (stereo not shown) [Example 387],−2%,53%
CN(C)C(c1ccc(F)cc1)C1CCC(CNC(=O)COCCN(C)S(=O)(=O)c2ccc(OC(F)(F)F)cc2)CC1 (stereo not shown) [Example 439],16%,50%
CN(C)C(c1ccc(F)cc1)C1CCC(NC(=O)COC2CCN(S(=O)(=O)c3ccccc3)CC2)CC1 (stereo not shown) [Example 408],1%,48%
COc1ccc(S(=O)(=O)N(C)CCOCC(=O)NCC2CCC(C(c3ccc(Cl)cc3)N(C)C)CC2)cc1OC (stereo not shown) [Example 379],49%,45%
CN(C)C(c1ccc(F)cc1)C1CCC(CCNC(=O)COCCN(C)S(=O)(=O)c2cccc(C(F)(F)F)c2)CC1 (stereo not shown) [Example 368],17%,61%
CN(C)C(c1ccc(F)cc1)C1CCC(CNC(=O)COCCN2CCN(S(=O)(=O)c3ccccc3)CC2)CC1 (stereo not shown) [Example 433],−12%,46%
Cc1ccc(S(=O)(=O)N2CCC(OCC(=O)NCC3CCC(C(c4ccc(F)cc4)N(C)C)CC3)C2)cc1 (stereo not shown) [Example 447],3%,44%
CN(C)C(c1ccc(F)cc1)C1CCC(NC(=O)COCCN(C)S(=O)(=O)c2c(Cl)cc(Cl)cc2Cl)CC1 (stereo not shown) [Example 382],30%,60%
CN(C)C(c1ccc(F)cc1)C1CCC(CCNC(=O)COCCN(C)S(=O)(=O)c2ccc(Cl)cc2)CC1 (stereo not shown) [Example 377],25%,59%
COc1cc(C)c(S(=O)(=O)N2CCC(OCC(=O)NCCC3CCC(C(c4ccc(Cl)cc4)N(C)C)CC3)C2)c(C)c1C (stereo not shown) [Example 412],−5%,50%
CN(C)C(c1ccc(Cl)cc1)C1CCC(CCNC(=O)COC2CCN(S(=O)(=O)c3ccccc3)C2)CC1 (stereo not shown) [Example 375],6%,53%
COc1cc(C)c(S(=O)(=O)N(C)CCOCC(=O)NC2CCC(C(c3ccc(F)cc3)N(C)C)CC2)c(C)c1 (stereo not shown) [Example 422],104%,43%
CN(C)C(c1ccc(Cl)cc1)C1CCC(CCNC(=O)COC2CCN(S(=O)(=O)c3ccc(F)cc3)C2)CC1 (stereo not shown) [Example 440],31%,47%
Cc1cc(C)c(S(=O)(=O)N(C)CCOCC(=O)NCCC2CCC(C(c3ccc(Cl)cc3)N(C)C)CC2)c(C)c1 (stereo not shown) [Example 416],30%,53%
CN(C)C(c1ccc(Cl)cc1)C1CCC(CCNC(=O)COCCN(Cc2ccccc2)S(=O)(=O)c2ccccc2)CC1 (stereo not shown) [Example 426],9%,48%
COc1ccc(S(=O)(=O)N2Cc3ccccc3CC2COCC(=O)NCCC2CCC(C(c3ccc(Cl)cc3)N(C)C)CC2)cc1 (stereo not shown) [Example 374],11%,59%
COc1ccc(S(=O)(=O)N2CCCCC2COCC(=O)NCC2CCC(C(c3ccc(F)cc3)N(C)C)CC2)c(OC)c1 (stereo not shown) [Example 405],24%,52%
COc1cc(C)c(S(=O)(=O)N(C)CCOCC(=O)NCCC2CCC(C(c3ccc(Cl)cc3)N(C)C)CC2)c(C)c1 (stereo not shown) [Example 378],101%,58%

SMILES,B1R Ant. r [10 μM] % Inhibition [1],"μ (binding on the μ opioid receptor, % inhibition) (human μ opiate receptor)"
COc1ccc(S(=O)(=O)N2Cc3ccccc3CC2COCC(=O)NCCC2CCC(C(c3ccc(F)cc3)N(C)C)CC2)cc1 (stereo not shown) [Example 389],21%,58%
COc1cc(C)c(S(=O)(=O)N2CCN(CCOCC(=O)NCC3CCC(C(c4ccc(Cl)cc4)N(C)C)CC3)CC2)c(C)c1C (stereo not shown) [Example 429],13%,54%
CN(C)C(c1ccc(F)cc1)C1CCC(CNC(=O)COCCN(C)S(=O)(=O)c2ccc(F)cc2)CC1 (stereo not shown) [Example 400],9%,55%
COc1cc(C)c(S(=O)(=O)N(CCOCC(=O)NC2CCC(C(c3cccc(F)c3)N(C)C)CC2)Cc2ccccc2)c(C)c1C (stereo not shown) [Example 419],34%,53%
CCN(CCOCC(=O)NCCC1CCC(C(c2ccc(Cl)cc2)N(C)C)CC1)S(=O)(=O)c1c(C)cc(OC)c(C)c1C (stereo not shown) [Example 434],58%,46%
COc1ccc(S(=O)(=O)N2CCCCC2CCOCC(=O)NCCC2CCC(C(c3ccc(F)cc3)N(C)C)CC2)cc1 (stereo not shown) [Example 398],56%,59%
COc1cc(C)c(S(=O)(=O)N2CCC(CCOCC(=O)NCCC3CCC(C(c4cccc(F)c4)N(C)C)CC3)CC2)c(C)c1C (stereo not shown) [Example 397],−11%,67%
COc1cc(C)c(S(=O)(=O)N2CCC(OCC(=O)NC3CCC(C(c4ccc(F)cc4)N(C)C)CC3)C2)c(C)c1C (stereo not shown) [Example 365],2%,49%
CCN(CCOCC(=O)NC1CCC(C(c2ccc(F)cc2)N(C)C)CC1)S(=O)(=O)c1c(C)cc(OC)c(C)c1C (stereo not shown) [Example 396],68%,60%
CN(C)C(c1ccc(Cl)cc1)C1CCC(CCNC(=O)COCC2CCCN(S(=O)(=O)c3ccccc3)C2)CC1 (stereo not shown) [Example 425],30%,48%
COc1cc(C)c(S(=O)(=O)N2CCCC(OCC(=O)NCC3CCC(C(c4ccc(F)cc4)N(C)C)CC3)C2)c(C)c1C (stereo not shown) [Example 418],6%,51%
COc1cc(C)c(S(=O)(=O)N2CCCC(OCC(=O)NCC3CCC(C(c4ccc(Cl)cc4)N(C)C)CC3)C2)c(C)c1C (stereo not shown) [Example 449],−7%,46%
CN(C)C(c1ccc(Cl)cc1)C1CCC(CNC(=O)COCCN(C)S(=O)(=O)c2ccc(OC(F)(F)F)cc2)CC1 (stereo not shown) [Example 411],3%,60%
COc1cc(C)c(S(=O)(=O)N(CCOCC(=O)NCCC2CCC(C(c3cccc(F)c3)N(C)C)CC2)Cc2ccccc2)c(C)c1C (stereo not shown) [Example 436],10%,57%
CCN(CCOCC(=O)NCCC1CCC(C(c2ccc(F)cc2)N(C)C)CC1)S(=O)(=O)c1c(C)cc(OC)c(C)c1C (stereo not shown) [Example 413],83%,55%
COc1ccc(S(=O)(=O)N(C)CCOCC(=O)NC2CCC(C(c3cccc(F)c3)N(C)C)CC2)cc1OC (stereo not shown) [Example 401],1%,49%
CN(C)C(c1ccc(F)cc1)C1CCC(NC(=O)COCCN(C)S(=O)(=O)c2c(Cl)cccc2Cl)CC1 (stereo not shown) [Example 363],29%,59%
CN(C)C(c1cccc(F)c1)C1CCC(NC(=O)COCCN2CCN(S(=O)(=O)c3ccccc3)CC2)CC1 (stereo not shown) [Example 364],−9%,58%
Cc1ccc(S(=O)(=O)N(C)CCOCC(=O)NC2CCC(C(c3ccc(F)cc3)N(C)C)CC2)cc1 (stereo not shown) [Example 448],12%,41%
